The source of these data is US20160082036A1, “HYDROXYALKYL STARCH FOR THE TREATMENT OF CANCERS BY REDUCTION OF TUMOR GROWTH RATES” (Fresenius Kabi Deutschland GmbH, priority 2012, published 2016).

Structures are written as SMILES. “Also recorded” adds a separate entry of the source.

A short description of series [1]: Example 6.1: body weight of LXFL 529 tumor-bearing mice. The series is classed as in vivo, NMRI nu/nu mice. The following applies: FIG. 14. As for the experimental part:
The application volume was 20 ml/kg mouse body weight for saline and Voluven® 10% and 10 ml/kg of the 1 mg/ml solution for Everolimus (administered final dose 10 mg/kg). The route of administration was by i.v. injection into the tail vein for saline and Voluven® 10%. 10 mg/kg of body weight Everolimus was administered p.o.

The test system of series [2] is human prostate carcinoma cell line PC-3. Briefly: Example 4: PC-3 xenograft tumor growth in nude mice. It is filed as in vivo. As to conditions: 3 week observation period; FIG. 5. As for the experimental part:
In another study which was performed in analogy to the study described above, the effect of “Voluven 10%” was tested on a different cancer cell line, i.e. on prostate cancer cell line PC3.
The rapidly growing human prostate carcinoma cell line PC-3 was used as xenograft tumor model in nude mice to test the efficacy of Voluven® 10% on reduction of tumour growth rates. Paclitaxel was employed as positive control and saline as negative control.
• Strain: NMRI nude (homozygous)-Rj:NMRI-nu • Sex: Female • Supplier: Elevage Janvier, Route des Chènes Secs, 53940 Le Genest St. Isle, France • Health status: SPF • Age at delivery: 5-6 weeks • Acclimatization: At least 6 days […]
Tumor measurement: The tumor growth was measured three times a week (e.g. Monday, Wednesday, and Friday) beginning with study day 3 (tumor measurable at size approx. 3 mm in diameter). Tumor volumes were calculated according to V=(length×(width)^2)/2. […]
To prepare the paclitaxel solution at a concentration of 2.5 mg/ml the paclitaxel stock solution (6 mg/ml) was diluted with 0.9% isotonic saline. […] Saline and Voluven® 10% were provided as ready-to-use formulations. […]
Statistical analyses of data were performed for each group separately. Group medians were calculated for body weights and tumor measurements for each investigation time. […] For the evaluation of tumor volume/area and T/C values were calculated using Microsoft Excel 7.0.

Series [3] in a line: Example 6.2: body weight of LXFE 397 tumor-bearing mice. The series is classed as in vivo, NMRI nu/nu mice. The following applies: FIG. 16. On the procedure: The application volume was 20 ml/kg mouse body weight for saline and Voluven® 10% (i.v.) and 100 mg/kg for Capecitabine (p.o.).

As for `CO[C@H]1C[C@@H]2CC[C@@H](C)[C@@](O)(O2)C(=O)C(=O)N2CCCC[C@H]2C(=O)O[C@H]([C@H](C)C[C@@H]2CC[C@@H](OCCO)[C@H](OC)C2)CC(=O)[C@H](C)/C=C(\C)[C@@H](O)[C@@H](OC)C(=O)[C@H](C)C[C@H](C)/C=C/C=C/C=C/1C` [Everolimus], the “body weight (in words)” value in series [1] is “slight reduction”.
As to `CC(=O)O[C@H]1C(=O)[C@@]2(C)[C@H]([C@H](OC(=O)c3ccccc3)[C@]3(O)C[C@H](OC(=O)[C@H](O)[C@@H](NC(=O)c4ccccc4)c4ccccc4)C(C)=C1C3(C)C)[C@]1(OC(C)=O)CO[C@@H]1C[C@@H]2O` [paclitaxel, Paclitaxel], the “effect on tumor volume (in words)” value in series [2] is reported as “stable tumour size or reduced the tumor volume; also recorded: decrease of the initial tumor volume”.
As to `CCCCCOC(=O)Nc1nc(=O)n([C@@H]2O[C@H](C)[C@@H](O)[C@H]2O)cc1F` [Capecitabine], in series [3], the “body weight (in words)” value is listed as “not reduced”.
